Results: patent US12590123B2, “Compounds and methods for treating cancer, viral infections, and allergic conditions” (Washington University, priority 2019, dated 2026)
Starred links: 1 amine or outer side, 2 acyl side, 3 side chain; linkers in the order of their positions; H or OH if unused. Positions of bridges follow the written chain, without caps; N, C: chain ends. Non-standard residues stand in square brackets, D forms with d. Residues, ends and D or L forms follow the SMILES beside them. X6 = N=C(N)NCCC[C@H](N[*:1])C(=O)c1nc2ccc(C(=O)[*:2])cc2s1

Tests used:
[1] = tested on: VSVpp (SARS-2-S) entry into TMPRSS2-positive Calu-3 cells
[2] = biological target: T1, recombinant HGFA serine protease domain (Homo sapiens, UniProt Q04756); test: Fluorescent kinetic enzyme assay of HGFA activity (Boc-QLR-AMC); assay type: biochemical; conditions: Table 2; read-out: HGFA (IC50 nM)
T1 construct: His6 tag (N); seven amino acid spacer plus TEV cleavage site (N); made in house; host or cells: High 5 insect cells (baculovirus; Sf9 for virus production)
T1 sequence (Q04756 373-655): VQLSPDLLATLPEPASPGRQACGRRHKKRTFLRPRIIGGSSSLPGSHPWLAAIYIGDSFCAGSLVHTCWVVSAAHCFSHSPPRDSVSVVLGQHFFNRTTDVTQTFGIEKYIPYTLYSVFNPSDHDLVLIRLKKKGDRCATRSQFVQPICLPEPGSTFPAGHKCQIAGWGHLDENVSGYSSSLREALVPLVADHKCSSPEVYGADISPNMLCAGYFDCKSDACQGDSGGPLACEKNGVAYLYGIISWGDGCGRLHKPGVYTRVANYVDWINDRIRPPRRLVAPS
From the text: The compounds prepared in Examples 1 to 8 were subjected to a series of inhibitions studies. The compounds were first tested in an HGFA enzymatic assay using the fluorogenic substrate Boc-QLR-AMC with a recombinant form of the HGFA serine protease domain.
This PCR product was cloned into the SfoI-HindIII sites of a modified pFastBac HT baculovirus expression vector (Addgene, Cambridge, MA). This vector contains a six amino His tag followed by a seven amino spacer and a seven amino acid TEV cleavage site placed immediately downstream of the honey bee melittin signal peptide. Using a modified Bac to Bac Expression System (Life Technologies, Carlsbad, CA), recombinant HGFA bacmids were obtained by transforming DH10Bac Escherichia coli cells. To obtain HGFA containing baculovirus, purified bacmids were transfected into Sf9 insect cells. After 5 days in culture at 27° C., media was harvested from transfected Sf9 cells. This media was used to prepare baculovirus infected insect cells (BIICs). These BIIICs were used to infect High 5 insect cells. Four days post infection, media was harvested, and recombinant protein was prepared as follows. Media was chilled to 4° C. and spun at 4000×g for 20 minutes (all subsequent steps were performed at 4° C. unless noted). Clarified media was passed first through a Whatman GF/B 1 um (#1821-047, GE Healthcare Life Sciences, Piscataway, NJ) and then a 0.22 μm PES membrane (#99955, TPP Techno Plastic Products AG, Trasadingen, Switzerland) and then concentrated using a Pall Centramate tangential flow system and Centramate T-series Cassette (#OS010T12, Pall Corporation, Port Washington, NY). Concentrated media was then buffer exchanged in two steps, five volumes of 50 mM Na-phosphate, 500 mM NaCl, pH 6.2, followed by five volumes of 50 mM Na-phosphate, 500 mM NaCl, pH 7.5. […] After mixing this slurry for 12 hours, nickel agarose beads were allowed to settle by gravity and then loaded into a column. Beads were washed with buffer (25 mM Na-phosphate, 500 mM NaCl, 25 mM imidazole, pH 8) and the bound protein eluted using (25 mM Na-phosphate, 500 mM NaCl, 250 mM imidazole, pH 8). Using a Amicon Ultra-4 Centrifugal filters (#UFC801008, Merck Millipore, Ltd., Tullagreen, Ireland), peak protein fractions were concentrated and run over a Superdex-200 10/300 GL column (GE Healthcare Life Sciences, Piscataway, NJ) in 10 mM Tris, 200 mM NaCl, 0.2 mM EDTA, pH 8. HGFA containing fractions were pooled, concentrated, made 50% glycerol, and stored at minus 20° C. Protein was quantitated using a modified Lowry protein assay (#500-0006, Bio-Rad Laboratories, Hercules, CA) and specific activity determined using Boc-QLR-AMC substrate.
Fluorescent kinetic enzyme assays of HGFA, matriptase, and hepsin activity: Compounds (0-20 μM final concentration in reaction) were diluted in DMSO (2% DMSO final concentration in reaction) and then mixed with either recombinant HGFA serine protease domain, matriptase (#3946-SE-010, R&D Systems, Minneapolis, Minnesota), or activated hepsin* (#4776-SE-010, R&D Systems, Minneapolis, Minnesota) in black 384 well plates (Corning #3575. Coming, NY). The final assay concentration for HGFA, matriptase, and hepsin, were 6.25 nM, 0.2 nM, and 0.3 nM, respectively in TNC buffer (25 mM Tris, 150 mM NaCl, 5 mM CaCl2, 0.01% Triton X-100, pH 8). After thirty minutes of incubation at room temperature, Boc-QLR-AMC substrate was added (HGFA assay) or Boc-QAR-AMC substrate (matriptase, and hepsin assays). Fluorescence (excitation at 380 nm and emission at 460 nm) was kinetically measured at room temperature over a 1 hour time period using a Biotek Synergy 2 plate reader (Winnoski, VT). From a plot of the mean reaction velocity versus the inhibitor concentration, a non-linear four parameter curve fit was performed using GraphPad Prism (GraphPad Software, San Diego, CA) to determine inhibitor IC50s. The IC50 values were determined from the average of three or more separate experimental determinations. […]

matriptase = biological target: T2, matriptase (Homo sapiens, UniProt Q9Y5Y6); test: Fluorescent kinetic enzyme assay of matriptase activity (Boc-QAR-AMC); assay type: biochemical; conditions: Table 2; read-out: Matriptase (IC50 nM)
T2 construct: purchased R&D Systems 3946-SE-010
T2 sequence (Q9Y5Y6 615-855 limits assumed): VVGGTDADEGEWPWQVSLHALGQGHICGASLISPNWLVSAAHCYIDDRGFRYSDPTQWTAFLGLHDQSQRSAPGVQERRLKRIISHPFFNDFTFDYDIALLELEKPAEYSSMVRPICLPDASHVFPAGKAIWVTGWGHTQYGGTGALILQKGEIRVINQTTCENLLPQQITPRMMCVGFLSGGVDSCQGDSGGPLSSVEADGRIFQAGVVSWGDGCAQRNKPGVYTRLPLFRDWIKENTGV
Experimental: After thirty minutes of incubation at room temperature, Boc-QLR-AMC substrate was added (HGFA assay) or Boc-QAR-AMC substrate (matriptase, and hepsin assays). […] From a plot of the mean reaction velocity versus the inhibitor concentration, a non-linear four parameter curve fit was performed using GraphPad Prism (GraphPad Software, San Diego, CA) to determine inhibitor IC50s. The IC50 values were determined from the average of three or more separate experimental determinations. Apparent Ki values were calculated using the Cheng and Prusoff equation (Ki=IC50/(1+[S]/Km).
Inhibitors were pre-incubated with protease followed by the addition of the substrate. Inhibition of substrate proteolysis derived fluorescence was monitored kinetically over a period of one hour.

activated hepsin = biological target: T3, activated hepsin (Homo sapiens, UniProt P05981); test: Fluorescent kinetic enzyme assay of hepsin activity (Boc-QAR-AMC); assay type: biochemical; conditions: Table 2; read-out: Hepsin (IC50 nM)
T3 construct: purchased R&D Systems 4776-SE-010
T3 sequence (P05981 163-417 limits assumed): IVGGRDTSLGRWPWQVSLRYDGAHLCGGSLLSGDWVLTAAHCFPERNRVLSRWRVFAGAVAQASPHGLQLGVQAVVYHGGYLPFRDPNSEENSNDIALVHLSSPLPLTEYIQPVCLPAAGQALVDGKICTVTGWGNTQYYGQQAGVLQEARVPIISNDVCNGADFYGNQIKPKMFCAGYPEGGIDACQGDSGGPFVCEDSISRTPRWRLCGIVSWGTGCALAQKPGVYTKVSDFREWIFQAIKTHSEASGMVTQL
T3 sequence (P05981 1-162 partner limits assumed): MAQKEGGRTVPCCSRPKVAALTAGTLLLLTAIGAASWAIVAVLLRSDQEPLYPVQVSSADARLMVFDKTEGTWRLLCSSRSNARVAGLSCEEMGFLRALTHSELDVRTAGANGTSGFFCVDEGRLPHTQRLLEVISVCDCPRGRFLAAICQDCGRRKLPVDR

recombinant thrombin = recombinant thrombin (Homo sapiens, UniProt P00734); test: Chromogenic kinetic enzyme assay of thrombin (S2238); assay type: biochemical; conditions: Table 2; chromogenic assay; read-out: Thrombin* (IC50 nM)
Experimental: (§1) Using GraphPad Prism (GraphPad Software, San Diego, CA), a four-parameter curve fit was used to determine the inhibitor IC50s from a plot of the mean reaction velocity versus the inhibitor concentration. The IC50 values represent the average of three or more separate experimental determinations. Apparent Ki values were calculated from the IC50 values using the Cheng and Prusoff equation (Ki=IC50/(1+[S]/Km).
(§2) Using GraphPad Prism version 6.04 software program, (GraphPad Software, San Diego, CA, graphpad.com), a four parameter curve fit was used to determine the inhibitor IC50s from a plot of the mean reaction velocity versus the inhibitor concentration.
(§3) Fluorescent inhibitor and chromogenic proteolytic assays were performed for compounds prepared in Example 11 in general accordance with the procedures described in Example 9.

Factor Xa = Factor Xa (Homo sapiens, UniProt P00742); test: Chromogenic kinetic enzyme assay of Factor Xa (S2222); assay type: biochemical; conditions: Table 2; chromogenic assay; read-out: Factor Xa* (IC50 nM)
Sequence of Factor Xa (P00742 235-488 limits assumed): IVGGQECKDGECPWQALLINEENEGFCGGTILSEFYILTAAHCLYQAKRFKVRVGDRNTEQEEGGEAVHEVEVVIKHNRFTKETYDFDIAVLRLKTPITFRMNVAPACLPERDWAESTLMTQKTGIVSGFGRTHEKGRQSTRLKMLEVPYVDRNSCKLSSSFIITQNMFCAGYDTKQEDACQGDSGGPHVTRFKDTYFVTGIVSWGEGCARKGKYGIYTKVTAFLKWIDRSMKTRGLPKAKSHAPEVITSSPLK
Sequence of Factor Xa (P00742 41-179 partner limits assumed): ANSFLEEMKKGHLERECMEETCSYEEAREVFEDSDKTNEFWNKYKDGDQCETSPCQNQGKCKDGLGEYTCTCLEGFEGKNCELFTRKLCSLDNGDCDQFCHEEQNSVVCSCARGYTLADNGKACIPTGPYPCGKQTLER
Experimental: as §1, §2, §3

Compound | EC50 [1] | IC50 [2] | IC50 (matriptase) | IC50 (activated hepsin) | IC50 (recombinant thrombin) | IC50 (Factor Xa)
CC(=O)N[C@H](Cc1c[nH]c2ccccc12)C(=O)N[C@@H](Cc1ccccc1)C(=O)N[C@@H](CCCNC(=N)N)C(=O)c1nc2ccccc2s1 [PK-1-89, Ac-dWFR-kbt] | 32 nM | – | – | – | – | –
CC(=O)N[C@H]1CCCCNC(=O)CCC(C(=O)N[C@@H](CCCNC(=N)N)C(=O)c2nc3ccccc3s2)NC(=O)[C@H](CCCNC(=N)N)NC1=O (stereo partly shown) [VD2109B] | – | 2520 nM | 0.07 nM | 0.04 nM | > 20000 nM | 155 nM
CC(=O)N[C@H]1CC(=O)NCCCC[C@@H](C(=O)N[C@@H](CCCNC(=N)N)C(=O)c2nc3ccc(C(=O)N[C@@H](C(N)=O)C(C)C)cc3s2)NC(=O)[C@H](CC(C)C)NC1=O [VD3056, 2-(((3S,6S,14S)-6-acetamido-3-isobutyl-2,5,8-trioxo-1,4,9-triazacyclotetradecane-14-carbonyl)-L-arginyl)-N—((R)-1-amino-3-methyl-1-oxobutan-2-yl)benzo[d]thiazole-6-carboxamide] (Ac-DLK[X6][dV]-NH2; lactam 1-3) | – | 5380 nM | 11.2 nM | 5.4 nM | 33.9 nM | 118 nM
CC(=O)N[C@H]1CC(=O)NCCCC[C@@H](C(=O)N[C@@H](CCCNC(=N)N)C(=O)c2nccs2)NC(=O)[C@H](CC(C)C)NC1=O [VD3076, (3S,6S,14S)-6-acetamido-N—((S)-5-guanidino-1-oxo-1-(thiazol-2-yl)pentan-2-yl)-3-isobutyl-2,5,8-trioxo-1,4,9-triazacyclotetradecane-14-carboxamide] | – | – | 41.3 nM | 136 nM | 7940 nM | 1360 nM
CC(=O)N[C@H]1CC(=O)NCCCC[C@@H](C(=O)N[C@@H](CCCNC(=N)N)C(=O)c2nc3ccccc3s2)NC(=O)[C@H]([C@H](C)O)NC1=O [VD3157, (3S,6S,14S)-6-acetamido-N—((S)-1-(benzo[d]thiazol-2-yl)-5-guanidino-1-oxopentan-2-yl)-3-((S)-1-hydroxyethyl)-2,5,8-trioxo-1,4,9-triazacyclotetradecane-14-carboxamide] | – | 11800 nM | 3.7 nM | 5.8 nM | > 20000 nM | 13300 nM
CC(=O)N[C@H]1CC(=O)NCCCC[C@@H](C(=O)N[C@@H](CCCNC(=N)N)C(=O)c2nc3ccccc3s2)NC(=O)[C@H](Cc2ccc(O)cc2)NC1=O [VD3158, (3S,6S,14S)-6-acetamido-N—((S)-1-(benzo[d]thiazol-2-yl)-5-guanidino-1-oxopentan-2-yl)-3-(4-hydroxybenzyl)-2,5,8-trioxo-1,4,9-triazacyclotetradecane-14-carboxamide] | – | – | 6.1 nM | 44 nM | > 20000 nM | 17000 nM
CC(=O)N[C@H]1CC(=O)NCCCC[C@@H](C(=O)N[C@@H](CCCNC(=N)N)C(=O)c2nc3ccccc3s2)NC(=O)[C@H](CC(N)=O)NC1=O [VD3166, (3S,6S,14S)-6-acetamido-3-(2-amino-2-oxoethyl)-N—((S)-1-(benzo[d]thiazol-2-yl)-5-guanidino-1-oxopentan-2-yl)-2,5,8-trioxo-1,4,9-triazacyclotetradecane-14-carboxamide] | – | 15800 nM | 3.8 nM | 10.1 nM | > 20000 nM | 4650 nM
CC(=O)N[C@H]1CC(=O)NCCCC[C@@H](C(=O)N[C@@H](CCCNC(=N)N)C(=O)c2nc3ccccc3s2)NC(=O)[C@H](C(C)C)NC1=O [VD3167, (3S,6S,14S)-6-acetamido-N—((S)-1-(benzo[d]thiazol-2-yl)-5-guanidino-1-oxopentan-2-yl)-3-isopropyl-2,5,8-trioxo-1,4,9-triazacyclotetradecane-14-carboxamide] | – | 1830 nM | 3.2 nM | 7.8 nM | > 20000 nM | 1510 nM
CC(=O)N[C@H]1CC(=O)NCCCC[C@@H](C(=O)N[C@@H](CCCNC(=N)N)C(=O)c2nc3ccccc3s2)NC(=O)CNC1=O [VD3174, (6S,14S)-6-acetamido-N—((S)-1-(benzo[d]thiazol-2-yl)-5-guanidino-1-oxopentan-2-yl)-2,5,8-trioxo-1,4,9-triazacyclotetradecane-14-carboxamide] | – | 4310 nM | 6.3 nM | 5.9 nM | > 20000 nM | 6180 nM
CC(=O)N[C@H]1Cc2ccc(cc2)OCCCC[C@@H](C(=O)N[C@@H](CCCNC(=N)N)C(=O)c2nc3ccccc3s2)NC(=O)[C@@H](Cc2c[nH]c3ccccc23)NC1=O [VD4162A] | – | 52 nM | 30.8 nM | – | > 20000 nM | 7470 nM
CC(=O)N[C@H]1CC(=O)N(C)CCCC[C@@H](C(=O)N[C@@H](CCCNC(=N)N)C(=O)c2nc3ccccc3s2)NC(=O)[C@H](CC(C)C)NC1=O [VD4192B] | – | 12300 nM | 1.1 nM | 14.9 nM | 17100 nM | 678 nM
CC(=O)N[C@H]1CC(=O)N(C)CCCC[C@@H](C(=O)N[C@@H](CCCNC(=N)N)C(=O)c2nc3ccccc3s2)NC(=O)[C@H](CC(C)C)NC1=O [VD4192C1] | – | 7730 nM | 111 nM | 0.97 nM | > 20000 nM | > 20000 nM
CC(=O)N[C@H]1CC(=O)N(C)CCCC[C@@H](C(=O)N[C@@H](CCCNC(=N)N)C(=O)c2nc3ccccc3s2)NC(=O)[C@H](CC(C)C)NC1=O [VD4192C2] | – | 8560 nM | 23.5 nM | 1.75 nM | > 20000 nM | 18500 nM
